Assay results from PMC8867174, “S-Nitrosation of Arabidopsis thaliana Protein Tyrosine Phosphatase 1 Prevents Its Irreversible Oxidation by Hydrogen Peroxide” (Frontiers in Plant Science, 2022).

Experiments:
[1] = biological target: T1, His-AtPTP1 (Arabidopsis thaliana Protein Tyrosine Phosphatase 1) (Arabidopsis thaliana, UniProt O82656); assay: pNPP hydrolysis after overnight pre-treatment, […] nm; biotin switch LC-MS/MS; assay type: biochemical; conditions: covalent (S-nitrosation of catalytic C265, reversible by DTT); 100 or 500 uM GSNO overnight 25 C, removed by gel filtration; assay 1 mM pNPP, pH 6.3, 25 C, no DTT
T1 construct: gene PTP1
T1 sequence (O82656 1-340): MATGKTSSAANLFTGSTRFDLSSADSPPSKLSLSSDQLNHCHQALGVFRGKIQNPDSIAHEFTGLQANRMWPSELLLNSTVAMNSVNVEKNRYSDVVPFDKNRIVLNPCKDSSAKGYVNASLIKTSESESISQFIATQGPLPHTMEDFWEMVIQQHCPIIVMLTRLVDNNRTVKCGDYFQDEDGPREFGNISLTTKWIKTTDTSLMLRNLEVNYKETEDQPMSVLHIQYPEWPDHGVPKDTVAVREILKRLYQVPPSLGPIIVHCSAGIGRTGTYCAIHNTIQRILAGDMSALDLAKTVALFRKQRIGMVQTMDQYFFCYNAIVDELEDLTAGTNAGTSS

[2] = biological target: T1, His-AtPTP1 (Arabidopsis thaliana Protein Tyrosine Phosphatase 1); assay: pNPP hydrolysis after overnight pre-treatment, […] nm; assay type: biochemical; conditions: covalent (NO donor, S-nitrosation); 250 uM to 1 mM SNAP overnight 25 C, removed by gel filtration; assay 1 mM pNPP, pH 6.3, 25 C

Compound	relative activity [1]	relative activity [2]
N[C@@H](CCC(=O)N[C@@H](CSN=O)C(=O)NCC(=O)O)C(=O)O [S-nitrosoglutathione]	GSNO inhibited the enzymatic activity of His-AtPTP1	
CC(=O)NC(C(=O)O)C(C)(C)SN=O (centres unmarked) [S-nitroso-N-acetylpenicillamine]		Treatment of His-AtPTP1 with SNAP also led to a significant decrease in its activity
